The source of these data is patent publication US12134620B2 (ARAXES PHARMA LLC, priority 2018, dated 2024).

This assay deals with T1, KRAS G12C 1-169, his-tagged protein, GDP-loaded (Homo sapiens, UniProt P01116, G12C).
T1 construct: KRAS G12C 1-169, his-tagged protein, GDP-loaded; His tag
Put plainly: Biochemical assay: covalent modification of KRAS G12C, analysed by mass spectrometry (RapidFire/TOF or Q-Exactive). Further: time not given here. It is filed as binding. The settings on record: Modification activity, modification percentage from MS peak intensities. A digest of the protocol:
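Covalent adduct formation was quantified by intact-protein mass spectrometry, either TOF or C4 LC-Q Exactive Plus, as percent modified versus unmodified protein after deconvolution. Compounds at 8 or 32 μM final were incubated with 0.5 or 2 μM GDP-bound KRAS G12C(1-169)-His in Hepes/NaCl/MgCl2 buffer before acid quench.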
On to `C=CC(=O)N1CC2(CCN(c3nc(OCc4cccnc4)nc(-c4c(C)ccc5[nH]ncc45)c3C#N)C2)C1` [Compound I-150, 4-(2-acryloyl-2,6-diazaspiro[3.4]octan-6-yl)-6-(5-methyl-1H-indazol-4-yl)-2-(pyridin-3-ylmethoxy)pyrimidine-5-carbonitrile], for which the Binding % entry is recorded as “++ (++ indicates binding activity from 50 to 85%)”.

In the case of `C=CC(=O)N1CC2(CCN(c3nc(-c4c(C)ccc5[nH]ncc45)c(C#N)c(N4CCOCC4)n3)C2)C1` [Compound I-142, 2-(2-acryloyl-2,6-diazaspiro[3.4]octan-6-yl)-4-(5-methyl-1H-indazol-4-yl)-6-morpholinopyrimidine-5-carbonitrile], the Binding % result was “+ (+ indicates binding activity greater than 0% and up to 50%)”.

For the molecule `C=CC(=O)N1CC2(CCN(c3nc(OC4CCN(C)CC4)nc(-c4c(C)ccc5[nH]ncc45)c3C#N)C2)C1` [Compound I-43, 4-(2-acryloyl-2,6-diazaspiro[3.4]octan-6-yl)-6-(5-methyl-1H-indazol-4-yl)-2-((1-methylpiperidin-4-yl)oxy)pyrimidine-5-carbonitrile], the Binding % result is “+++ (+++ indicates binding activity greater than 85%)”.

Regarding `C=CC(=O)N1CC2(CCN(c3cc(-c4c(O)cccc4F)ncn3)C2)C1` [Compound I-230, 1-(6-(6-(2-fluoro-6-hydroxyphenyl)pyri-midin-4-yl)-2,6-diazaspiro[3.4]octan-2-yl)prop-2-en-1-one], the Binding % entry is “+ (+ indicates binding activity greater than 0% and up to 50%)”.

With `C=CC(=O)N1CC2(CCN(c3ncnc(-c4c(C)ccc5[nH]nc(C6CC6)c45)c3C#N)C2)C1` [Compound I-238, 4-(2-acryloyl-2,6-diazaspiro[3.4]octan-6-yl)-6-(3-cyclopropyl-5-methyl-1H-indazol-4-yl)pyrimidine-5-carbonitrile], the Binding % entry was “+ (+ indicates binding activity greater than 0% and up to 50%)”.

For the molecule `C=CC(=O)N1CC2(CCN(c3ncnc(-c4c(C)ccc5[nH]ncc45)c3O)C2)C1` [Compound I-245, 1-(6-(5-hydroxy-6-(5-methyl-1H-indazol-4-yl)pyrimidin-4-yl)-2,6-diazaspiro[3.4]octan-2-yl)prop-2-en-1-one], the Binding % entry is “+ (+ indicates binding activity greater than 0% and up to 50%)”.

Regarding `C=CC(=O)N1CC2(CCN(c3ncnc(-c4c(O)cccc4F)c3C#N)CC2)C1` [Compound I-240, 4-(2-acryloyl-2,7-diazaspiro[3.5]nonan-7-yl)-6-(2-fluoro-6-hydroxyphenyl)pyri-midine-5-carbonitrile], the Binding % result is “+ (+ indicates binding activity greater than 0% and up to 50%)”.

For the molecule `C=CC(=O)N1CC2(CCN(c3ncnc(-c4c(C)ccc5[nH]ncc45)c3C3CC3)C2)C1` [Compound I-249, 1-(6-(5-cyclopropyl-6-(5-methyl-1H-indazol-4-yl)pyrimidin-4-yl)-2,6-diazaspiro[3.4]octan-2-yl)prop-2-en-1-one], the Binding % result is “+ (+ indicates binding activity greater than 0% and up to 50%)”.

`C=CC(=O)N1CC2(CCN(c3nc(OCc4ccccn4)nc(-c4c(C)ccc5[nH]ncc45)n3)C2)C1` [Compound I-219, 1-(6-(4-(5-methyl-1H-indazol-4-yl)-6-(pyridin-2-ylmethoxy)-1,3,5-triazin-2-yl)-2,6-diazaspiro[3.4]octan-2-yl)prop-2-en-1-one]: the Binding % result was “+ (+ indicates binding activity greater than 0% and up to 50%)”.

On to `C=CC(=O)N1CC2(CCN(c3ncnc(-c4c(C)ccc5[nH]ncc45)c3CC#N)C2)C1` [Compound I-241, 2-(4-(2-acryloyl-2,6-diazaspiro[3.4]octan-6-yl)-6-(5-methyl-1H-indazol-4-yl)pyrimidin-5-yl)acetonitrile], for which the Binding % result is “+ (+ indicates binding activity greater than 0% and up to 50%)”.

Regarding `C=CC(=O)N1CC2(CCN(c3nc(OCCc4ncccn4)nc(-c4c(C)ccc5[nH]ncc45)c3C#N)C2)C1` [Compound I-14, 4-(2-acryloyl-2,6-diazaspiro[3.4]octan-6-yl)-6-(5-methyl-1H-indazol-4-yl)-2-(2-(pyrimidin-2-yl)ethoxy)pyrimidine-5-carbonitrile], the Binding % entry is on record as “++ (++ indicates binding activity from 50 to 85%)”.

As to `C=CC(=O)N1CC2(CCN(c3nc(OCc4cccc(OC)c4)nc(-c4c(C)ccc5[nH]ncc45)c3C#N)C2)C1` [Compound I-151, 4-(2-acryloyl-2,6-diazaspiro[3.4]octan-6-yl)-2-((3-methoxybenzyl)oxy)-6-(5-methyl-1H-indazol-4-yl)pyrimidine-5-carbonitrile], the Binding % entry was “++ (++ indicates binding activity from 50 to 85%)”.

As to `C=CC(=O)N1CC2(CCN(c3nc(-c4c(C)ccc5[nH]ncc45)nc(N4CCOCC4)n3)C2)C1` [Compound I-189, 1-(6-(4-(5-methyl-1H-indazol-4-yl)-6-morpholino-1,3,5-triazin-2-yl)-2,6-diazaspiro[3.4]octan-2-yl)prop-2-en-1-one], the Binding % entry was “+ (+ indicates binding activity greater than 0% and up to 50%)”.

For the molecule `C=CC(=O)N1CC2(CCN(c3nc(C4CCN(C)CC4)nc(-c4c(C)ccc5[nH]ncc45)c3C#N)C2)C1` [Compound I-180, 4-(2-acryloyl-2,6-diazaspiro[3.4]octan-6-yl)-6-(5-methyl-1H-indazol-4-yl)-2-(1-methylpiperidin-4-yl)pyrimidine-5-carbonitrile], the Binding % result is “++ (++ indicates binding activity from 50 to 85%)”.

For the molecule `C=CC(=O)N1CC2(CCN(c3nc(OCCCN(C)C)nc(-c4c(C)ccc5[nH]ncc45)c3C#N)CC2)C1` [Compound I-86, 4-(2-acryloyl-2,7-diazaspiro[3.5]nonan-7-yl)-2-(3-(dimethylamino)pro-poxy)-6-(5-methyl-1H-indazol-4-yl)pyrimidine-5-carbonitrile], the Binding % entry is “++ (++ indicates binding activity from 50 to 85%)”.

With `C=CC(=O)N1CC2(CCN(c3cnc(-c4ccccc4)c(-c4c(C)ccc5cnn(C)c45)c3C#N)C2)C1` [Compound I-208, 5-(2-acryloyl-2,6-diazaspiro[3.4]octan-6-yl)-3-(1,6-dimethyl-1H-indazol-7-yl)-2-phenylisonicotinonitrile], the Binding % entry is “+ (+ indicates binding activity greater than 0% and up to 50%)”.

With `C=CC(=O)N1CC2(CCN(c3nc(N4CCOCC4)nc(-c4c(C)ccc5cnn(C6CC6)c45)c3C#N)C2)C1` [Compound I-97, 4-(2-acryloyl-2,6-diazaspiro[3.4]octan-6-yl)-6-(1-cyclopropyl-6-methyl-1H-indazol-7-yl)-2-morpholinopyrimidine-5-carbonitrile], the Binding % result is “+ (+ indicates binding activity greater than 0% and up to 50%)”.

On to `C=CC(=O)N1CC2(CCN(c3nc(OCc4ccc(C(F)(F)F)cc4)nc(-c4c(C)ccc5cnn(C)c45)c3C#N)C2)C1` [Compound I-157, 4-(2-acryloyl-2,6-diazaspiro[3.4]octan-6-yl)-6-(1,6-dimethyl-1H-indazol-7-yl)-2-((4-(trifluoromethyl)ben-zyl)oxy)pyrimidine-5-carbonitrile], for which the Binding % result is listed as “++ (++ indicates binding activity from 50 to 85%)”.

In the case of `C=CC(=O)N1CC2(CCN(c3nc(N4CCC(N5CCN(C)C6(CC6)C5)CC4)nc(-c4c(C)ccc5[nH]ncc45)c3C#N)C2)C1` [Compound I-194, 4-(2-acryloyl-2,6-diazaspiro[3.4]octan-6-yl)-6-(5-methyl-1H-indazol-4-yl)-2-(4-(4-methyl-4,7-diazaspiro[2.5]octan-7-yl)piperidin-1-yl)pyrimidine-5-carbonitrile], the Binding % result was “+++ (+++ indicates binding activity greater than 85%)”.

As for `C=CC(=O)N1CC2(CCN(c3nc(OC[C@@H]4CCCN4C)cc(-c4c(C)ccc5[nH]ncc45)c3C#N)C2)C1` [Compound I-185, 2-(2-acryloyl-2,6-diazaspiro[3.4]octan-6-yl)-4-(5-methyl-1H-indazol-4-yl)-6-(((S)-1-methylpyrrolidin-2-yl)methoxy)nicotino-nitrile], the Binding % entry was “+++ (+++ indicates binding activity greater than 85%)”.

For the molecule `C=CC(=O)N1CC2(CCN(c3nc(OCC(=O)N4CCCC4)nc(-c4c(C)ccc5[nH]ncc45)c3C#N)C2)C1` [Compound I-127, 4-(2-acryloyl-2,6-diazaspiro[3.4]octan-6-yl)-6-(5-methyl-1H-indazol-4-yl)-2-(2-oxo-2-(pyrrolidin-1-yl)ethoxy)pyrimidine-5-carbonitrile], the Binding % entry is “+ (+ indicates binding activity greater than 0% and up to 50%)”.

As to `C=CC(=O)N1CC2(CCN(c3nc(OCc4ccccn4)nc(-c4c(C)ccc5[nH]ncc45)c3C#N)C2)C1` [Compound I-15, 4-(2-acryloyl-2,6-diazaspiro[3.4]octan-6-yl)-6-(5-methyl-1H-indazol-4-yl)-2-(pyridin-2-ylmethoxy)pyrimidine-5-carbonitrile], the Binding % entry is recorded as “+++ (+++ indicates binding activity greater than 85%)”.

Take `C=CC(=O)N1CC2(CCN(c3nc(N4CCC(N5CCN(C)[C@H](C)C5)CC4)nc(-c4c(C)ccc5[nH]ncc45)c3C#N)C2)C1` [Compound I-188, 4-(2-acryloyl-2,6-diazaspiro[3.4]octan-6-yl)-2-(4-((R)-3,4-dimethylpiperazin-1-yl)piperidin-1-yl)-6-(5-methyl-1H-indazol-4-yl)pyrimidine-5-carbonitrile]: the Binding % entry was “+++ (+++ indicates binding activity greater than 85%)”.

As to `C=CC(=O)N1CC2(CCN(c3nc(OCCCN(C)C)nc(-c4c(C)ccc5[nH]ncc45)c3C#N)C2)C1` [Compound I-5, 4-(2-acryloyl-2,6-diazaspiro[3.4]octan-6-yl)-2-(3-(dimethylamino)pro-poxy)-6-(5-methyl-1H-indazol-4-yl)pyrimidine-5-carbonitrile], the Binding % result is on record as “+++ (+++ indicates binding activity greater than 85%)”.
